What all share (type): in vivo
Experiment [1] relates to leptin receptor deficient mice (db/db mice). Put plainly: Lipid in skeletal muscle cells (IMCL) in diabetes model mice, MRS. The note with it: 15 mg/kg single oral, 6 hours after administration. On the procedure:
In order to examine the influence of Compound I-12 on lipid in skeletal muscle cells (IMCL) of diabetes model mice, 6 hours after a single oral administration of a vehicle or Compound I-12 (15 mg/kg) to leptin receptor deficient mice (Leprdb/Leprdb, db/db; db/db mice), MR spectroscopy (MRS) data of the tibialis anterior muscle was measured using animal MRI (Varian MRI System 7T/210, Agilent Technologies) under isoflurane anesthesia. The measurement data was analyzed using software for quantitative analysis of MRS data (LCModel), and the quantity of IMCL was calculated as a creatine ratio.

Experiment [2] concerns ZDF rats. The experiment in a line: Lipid in skeletal muscle cells (IMCL) in diabetes model rats, MRS. The following applies: oral twice a day (7 mg/kg then 10 or 23 mg/kg), 24 hours after first administration. The protocol: In order to examine the influence of Compound I-12 on lipid in skeletal muscle cells (IMCL) of diabetic model rats, vehicle or Compound I-12 was orally administered to a spontaneous diabetes model (ZDF rats) twice a day (first morning administration: 7 mg/kg; second afternoon administration: 10 or 23 mg/kg), and 24 hours after the first administration, MR spectroscopy (MRS) data of the tibialis anterior muscle were measured using animal MRI (Varian MRI System 7T/210, Agilent Technologies) under isoflurane anesthesia. The measurement data was analyzed using software for quantitative analysis of MRS data (LCModel), and the quantity of IMCL was calculated as a creatine ratio.

Experiment [3] has as its system Atgl knockout mice. The experiment in a line: Long-chain fatty acid metabolizing ability in Atgl knockout mouse myocardium (BMIPP SPECT/CT wash out rate). On the procedure:
(§1) Atgl (adipose-triglyceride lipase) knockout mice are known as non clinical models of TGCV. Atgl knockout mice (KO mice) deficient in the Atgl gene were each produced by a known method.
The compound of the present invention was suspended in a 0.5% HPMC aqueous solution so that the dose of the same was 30 or 45 mg/kg/10 mL, and orally administered to 6 to 7-week-old male Atgl knockout mice on the day before and the day when the long chain fatty acid metabolizing ability was measured. On the day of measurement of long-chain fatty acid metabolizing ability, 14.6 MBq/mouse of iodine-123-8 methyl iodophenyl-pen-tadecanoic acid (BMIPP) was administered via the tail vein. At 1 hour and 4 hours after administration, the mice were imaged by single-photon emission computed tomography (SPECT)/CT under anesthesia, and the radioactivity of the administered BMIPP in the myocardium was measured. The metabolism of long-chain fatty acids in the myocardium was calculated as a wash out rate by the following formula.

Experiment [4] has as its system Atgl knockout mice. Put plainly: Spontaneous motility of Atgl knockout mice. The note with it: 45 mg/kg/10 mL repeated administration, 12 weeks of age, p<0.05, Welch's t test. On the procedure:
as §1
In order to examine the influence of the compounds of the present invention on spontaneous motility, spontaneous motility of Atgl knockout mice was measured using SCANET MV-40 ([…]) at 12 weeks of age after repeated administration of vehicle or the compounds of the present invention to the Atgl knockout mice. The mice were allowed to stand in a cage placed in the device, and the motility thereof for 30 minutes was measured.

The subject of experiment [5] is SD rats. The experiment in a line: Lipid in skeletal muscle cells (IMCL) in SD rats, MRS. The following applies: 20 mg/kg single oral, 24 hours after administration. The protocol: In order to examine the influence of Compound I-13 on lipid in skeletal muscle cells (IMCL), 24 hours after a single oral administration of a vehicle or Compound I-13 (20 mg/kg) to SD rats, MR spectroscopy (MRS) data of the tibialis anterior muscle was measured using animal MRI (Varian MRI System 7T/210, Agilent Technologies) under isoflurane anesthesia. The measurement data was analyzed using software for quantitative analysis of MRS data (LCModel), and the quantity of IMCL was calculated as a creatine ratio.

Turning to `C[C@@H](COC1CCC(Oc2nc3c(F)cc(OC4CC4)cc3n2C)CC1)NC(N)=O` (stereo partly drawn) [Compound I-12], the “IMCL (creatine ratio), tibialis anterior muscle” value in experiment [1] and in experiment [2] was “significant IMCL decreasing effect” throughout. Moreover, in experiment [3] (30 mg/kg/10 mL oral, p=0.096, Welch's t test), the “long chain fatty acid metabolizing ability in myocardium (wash out rate)” value was “tended to improve”.
On to `CC(=O)N[C@@H](C)CCC1OCC(Oc2nc3c(F)c(OC4CC4)ccc3n2C)CO1` (stereo partly drawn) [Compound I-13], for which the “spontaneous motility (30 minutes)” value in experiment [4] is given as “significant improving effect”. The “IMCL (creatine ratio), tibialis anterior muscle” value in experiment [5] is given as “significant IMCL decreasing effect”. The “long-chain fatty acid metabolizing ability in myocardium (wash out rate)” value in experiment [3] (45 mg/kg/10 mL oral, p<0.05, Welch's t test) is on record as “significant improving effect”.

The values are drawn from patent US20250041279A1, “THERAPEUTIC MEDICINE FOR HEART DISEASE OR SKELETAL MUSCLE DISEASE” (SHIONOGI & CO., LTD., priority 2021, published 2025).
